Where a name gives a salt, the structure may show the parent alone.
test system: Plasmodium falciparum 3D7 strain; experiment: P. falciparum 3D7 asexual blood stage assay (SYBR green readout); assay type: cell-based; conditions: Plasmodium falciparum, 3D7, Erythrocyte, 72 h
How it was run: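 P. falciparum 3D7 in A+ erythrocytes (5% haematocrit, 0.5% parasitaemia) exposed 72 h at 37 °C under 1% O2/3% CO2 to 20-point 1.5-fold titrations, 50,000–15 nM in 0.5% DMSO. SYBR green lysis overnight, fluorescence 485/528 nm; normalized to mefloquine and DMSO, EC50 from biphasic two-site fit.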

SMILES | IC50 [nM]
C[C@@H]1C[C@H](N2C(=N)N[C@](C)(c3cccc(NC(=O)c4ncc5ccccn45)c3Cl)CC2=O)CCO1 (relative stereo) [Example 65, N-(2-Chloro-3-{(4S)-2-imino-4-methyl-1-[(2R*,4R*)-2-methyl-tetrahydropyran-4-yl]-6-oxo-hexahydropyrimidin-4-yl]phenyl)-imidazo[1,5-a]pyridine-3-carboxamide hydrochloride] | 51
C[C@@H]1C[C@H](N2C(=N)N[C@](C)(c3cccc(NC(=O)c4cnc5ccncc5c4)c3Cl)CC2=O)CCO1 (relative stereo) [Example 43, N-(2-Chloro-3-{(4S)-2-imino-4-methyl-1-[(2R*,4R*)-2-methyl-tetrahydropyran-4-yl]-6-oxo-hexahydropyrimidin-4-yl]phenyl)-1,6-naphthyridine-3-carboxamide trifluoroacetic acid salt] | 92
COc1ccncc1C(=O)Nc1cccc([C@]2(C)CC(=O)N([C@@H]3CCO[C@H](C)C3)C(=N)N2)c1Cl (relative stereo) [Example 45, N-(2-Chloro-3-{(4S)-2-imino-4-methyl-1-[(2R*,4R*)-2-methyl-tetrahydropyran-4-yl]-6-oxo-hexahydropyrimidin-4-yl]phenyl)-4-methoxypyridine-3-carboxamide trifluoroacetic acid salt] | 156
C[C@@H]1C[C@H](N2C(=N)N[C@](C)(c3cccc(NC(=O)c4ccc(Cl)cn4)c3Cl)CC2=O)CCO1 (relative stereo) [Example 63, 5-Chloro-N-(2-chloro-3-{(4S)-2-imino-4-methyl-1-[(2R*,4R*)-2-methyltetrahydropyran-4-yl]-6-oxo-hexahydropyrimidin-4-yl]phenyl)-pyridine-2-carboxamide hydrochloride] | 41
C[C@@H]1C[C@H](N2C(=N)N[C@](C)(c3cccc(NC(=O)c4cc(C#N)ccc4Cl)c3Cl)CC2=O)CCO1 (relative stereo) [Example 98, 2-Chloro-N-(2-chloro-3-{(4S)-2-imino-4-methyl-1-[(2R*,4R*)-2-methyltetrahydropyran-4-yl]-6-oxo-hexahydropyrimidin-4-yl}phenyl)-5-cyanobenzamide hydrochloride] | 45
COc1ccc(C#N)cc1C(=O)Nc1cccc([C@]2(C)CC(=O)N([C@@H]3CCO[C@H](C)C3)C(=N)N2)c1Cl (relative stereo) [Example 106, N-(2-Chloro-3-{(4S)-2-imino-4-methyl-1-[(2R*,4R*)-2-methyl-tetrahydropyran-4-yl]-6-oxo-hexahydropyrimidin-4-yl}phenyl)-5-cyano-2-methoxybenzamide hydrochloride] | 38
C[C@@H]1C[C@H](N2C(=N)N[C@](C)(c3cccc(NC(=O)c4ccccn4)c3Cl)CC2=O)CCO1 (relative stereo) [Example 6, N-(2-Chloro-3-{(4S)-2-imino-4-methyl-1-[(2R*,4R*)-2-methyl-tetrahydropyran-4-yl]-6-oxo-hexahydropyrimidin-4-yl}phenyl)-pyridine-2-carboxamide hydrochloride] | 33
COc1nccc(C(F)(F)F)c1C(=O)Nc1cccc([C@]2(C)CC(=O)N([C@@H]3CCO[C@H](C)C3)C(=N)N2)c1Cl (relative stereo) [Example 114, N-(2-Chloro-3-{(4S)-2-imino-4-methyl-1-[(2R*,4R*)-2-methyl-tetrahydropyran-4-yl]-6-oxo-hexahydropyrimidin-4-yl]phenyl)-2-methoxy-4-(trifluoromethyl)-pyridine-3-carboxamide hydrochloride] | 53
C[C@@H]1C[C@H](N2C(=N)N[C@](C)(c3cccc(NC(=O)c4ncc(F)cc4C(F)(F)F)c3Cl)CC2=O)CCO1 (relative stereo) [Example 94, N-(2-Chloro-3-{(4S)-2-imino-4-methyl-1-[(2R*,4R*)-2-methyl-tetrahydropyran-4-yl]-6-oxo-hexahydropyrimidin-4-yl}phenyl)-5-fluoro-3-(trifluoromethyl)-pyridine-2-carboxamide hydrochloride] | 81
C[C@@H]1C[C@H](N2C(=N)N[C@](C)(c3cccc(NC(=O)c4cc(C#N)cc(C(F)(F)F)c4)c3Cl)CC2=O)CCO1 (relative stereo) [Example 95, N-(2-Chloro-3-{(4S)-2-imino-4-methyl-1-[(2R*,4R*)-2-methyl-tetrahydropyran-4-yl]-6-oxo-hexahydropyrimidin-4-yl}phenyl)-3-cyano-5-(trifluoromethyl)-benzamide hydrochloride] | 34
C[C@@H]1C[C@H](N2C(=N)N[C@](C)(c3cccc(NC(=O)c4cc(N5CCOCC5)ccn4)c3Cl)CC2=O)CCO1 (relative stereo) [Example 93, N-(2-Chloro-3-{(4S)-2-imino-4-methyl-1-[(2R*,4R*)-2-methyl-tetrahydropyran-4-yl]-6-oxo-hexahydropyrimidin-4-yl]phenyl)-4-(morpholin-4-yl)pyridine-2-carboxamide hydrochloride] | 47
C[C@@H]1C[C@H](N2C(=N)N[C@](C)(c3cccc(NC(=O)c4ccc(C(F)(F)F)cn4)c3Cl)CC2=O)CCO1 (relative stereo) [Example 18, N-(2-Chloro-3-{(4S)-2-imino-4-methyl-1-[(2R*,4R*)-2-methyl-tetrahydropyran-4-yl]-6-oxo-hexahydropyrimidin-4-yl}phenyl)-5-(trifluoromethyl)pyridine-2-carboxamide hydrochloride] | 46
C[C@@H]1C[C@H](N2C(=N)N[C@](C)(c3cccc(NC(=O)c4cccnn4)c3Cl)CC2=O)CCO1 (relative stereo) [Example 19, N-(2-Chloro-3-{(4S)-2-imino-4-methyl-1-[(2R*,4R*)-2-methyl-tetrahydropyran-4-yl]-6-oxo-hexahydropyrimidin-4-yl]phenyl)-pyridazine-3-carboxamide hydrochloride] | 31
C[C@@H]1C[C@H](N2C(=N)N[C@](C)(c3cccc(NC(=O)c4cc(C(F)(F)F)nn4C)c3Cl)CC2=O)CCO1 (relative stereo) [Example 32, N-(2-Chloro-3-{(4S)-2-imino-4-methyl-1-[(2R*,4R*)-2-methyl-tetrahydropyran-4-yl]-6-oxo-hexahydropyrimidin-4-yl}phenyl)-2-methyl-5-(trifluoromethyl)-pyrazole-3-carboxamide trifluoroacetic acid salt] | 55
C[C@@H]1C[C@H](N2C(=N)N[C@](C)(c3cccc(NC(=O)c4cccc(C(F)(F)F)c4)c3Cl)CC2=O)CCO1 (relative stereo) [Example 41, N-(2-Chloro-3-{(4S)-2-imino-4-methyl-1-[(2R*,4R*)-2-methyl-tetrahydropyran-4-yl]-6-oxo-hexahydropyrimidin-4-yl}phenyl)-3-(trifluoromethyl)benzamide trifluoroacetic acid salt] | 15
C[C@@H]1C[C@H](N2C(=N)N[C@](C)(c3cccc(NC(=O)c4cccc(C#N)c4)c3Cl)CC2=O)CCO1 (relative stereo) [Example 20, N-(2-Chloro-3-{(4S)-2-imino-4-methyl-1-[(2R*,4R*)-2-methyl-tetrahydropyran-4-yl]-6-oxo-hexahydropyrimidin-4-yl}phenyl)-3-cyanobenzamide hydrochloride] | 8

same assay, conditions: Plasmodium falciparum, Erythrocyte; P. falciparum 3D7 in human erythrocytes, 72 h incubation, SYBR green fluorescence; read-out: IC50

IC50 [nM] | SMILES
13 | C[C@@H]1C[C@H](N2C(=N)N[C@](C)(c3cccc(NC(=O)c4cc(F)c(F)cc4F)c3Cl)CC2=O)CCO1 (relative stereo) [Example 64, N-(2-Chloro-3-{(4S)-2-imino-4-methyl-1-[(2,R*,4R*)-2-methyl-tetrahydropyran-4-yl]-6-oxo-hexahydropyrimidin-4-yl}phenyl)-2,4,5-trifluorobenzamide hydrochloride]
